Experimental data: patent publication US20100076011A1, “Enantiomer-Pure Hexahydro-Pyrrolocyclopenta-Pyridine Derivatives” (priority 2004, published 2010)
Where a name gives a salt, the structure may show the parent alone. Read-outs that look alike come from different tables or passages of the source.

What was measured:
[1] = target: T1, α4β2-subtype (central nicotine receptor) (Rattus norvegicus, UniProt P09483+P12390); experiment: Radioligand assay: [3H] cytisin binding to the α4β2-subtype in rat brain membranes
T1 construct: Membrane-enriched fractions of rat brain without cerebellum; tissue ABS Inc. Wilmington, Del; host or cells: rat brain without cerebellum, membrane-enriched fractions
T1 sequence (P09483 31-630): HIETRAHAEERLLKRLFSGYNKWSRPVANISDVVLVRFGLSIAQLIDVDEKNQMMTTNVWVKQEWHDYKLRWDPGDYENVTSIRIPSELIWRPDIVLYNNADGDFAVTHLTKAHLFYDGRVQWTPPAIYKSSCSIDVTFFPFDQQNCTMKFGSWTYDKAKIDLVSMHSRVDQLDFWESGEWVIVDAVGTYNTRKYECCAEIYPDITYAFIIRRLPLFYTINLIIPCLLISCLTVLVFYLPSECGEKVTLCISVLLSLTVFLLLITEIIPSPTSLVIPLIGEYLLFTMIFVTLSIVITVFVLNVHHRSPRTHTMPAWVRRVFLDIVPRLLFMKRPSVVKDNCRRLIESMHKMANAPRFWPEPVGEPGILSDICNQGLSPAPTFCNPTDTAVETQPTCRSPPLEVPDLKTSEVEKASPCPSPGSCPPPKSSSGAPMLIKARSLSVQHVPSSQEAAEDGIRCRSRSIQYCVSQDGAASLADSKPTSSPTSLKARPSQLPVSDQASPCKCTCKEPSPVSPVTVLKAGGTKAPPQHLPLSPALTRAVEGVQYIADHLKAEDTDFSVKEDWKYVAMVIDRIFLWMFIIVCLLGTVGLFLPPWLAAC
T1 sequence (P12390 25-500): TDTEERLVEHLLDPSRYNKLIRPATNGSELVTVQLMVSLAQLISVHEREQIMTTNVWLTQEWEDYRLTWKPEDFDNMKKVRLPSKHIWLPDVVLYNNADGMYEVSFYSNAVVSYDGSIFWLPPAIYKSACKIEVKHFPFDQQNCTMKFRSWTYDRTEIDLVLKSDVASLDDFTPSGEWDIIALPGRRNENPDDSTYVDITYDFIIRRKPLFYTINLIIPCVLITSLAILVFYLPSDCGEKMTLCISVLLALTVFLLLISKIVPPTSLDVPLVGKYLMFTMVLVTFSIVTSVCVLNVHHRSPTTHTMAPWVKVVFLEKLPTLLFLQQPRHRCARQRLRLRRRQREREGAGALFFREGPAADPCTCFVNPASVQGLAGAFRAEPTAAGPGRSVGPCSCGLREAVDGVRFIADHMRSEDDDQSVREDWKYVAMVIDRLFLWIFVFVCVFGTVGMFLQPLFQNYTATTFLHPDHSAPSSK
Protocol: (2 samples each). The non-specific binding was determined with 10 μM (−)nicotine. The incubation was […] by vacuum filtration through a Whatman GF/C filter which previously had been humidified with 0.5% polyethylene imine. Bound radioactivity was collected on Millipore Multiscreen plates FB with a Packard Cell Harvester, and determined with a Packard Topcount Microplate Beta Counter. IC50 values were determined by non-linear regression, and from this the Ki values by means of the Cheng-Prusoff equation, wherein Ki=IC50/1+[ligand]/KID. The mean Ki values were obtained from at least three individual determinations.

Structure (SMILES) | Ki [1] [µM] | also measured
c1cc2c(cn1)[C@H]1NCC[C@H]1C2 (as salt: hydrochloride) [Example 6, (−)-[3aR-(3aα,8bα)]-1,2,3,3a,4,8b-Hexahydropyrrolo[3′,2′:4,5]-cyclopenta[1,2-c]pyridinodihydrochloride] | – | melting point: 94 to 95 °C
c1cnc2c(c1)C1NCCC1C2 (single isomer, unassigned; (+)) [Example 1, (+)-[3aα,8bα]-1,2,3,3a,4,8b-Hexahydropyrrolo-[2′,3′:3,4]cyclopenta[1,2-b]pyridine-dihydrochloride] | 2.43 | –
CN1CCC2Cc3ncccc3C21 (single isomer, unassigned; (+)) [Example 4, (+)-[3aα,8bα]-1,2,3,3a,4,8b-Hexahydro-1-methyl-pyrrolo[2′,3′:3,4]cyclopenta[1,2-b]pyridinedihydrochloride] | > 1000 | –
c1cnc2c(c1)C1NCCC1C2 (single isomer, unassigned; (-)) (as salt: hydrochloride) [Example 2, (−)-[3aα,8bα]-1,2,3,3a,4,8b-Hexahydropyrrolo-[2′,3′:3,4]cyclopenta[1,2-b]pyridine-dihydrochloride] | – | melting point: 95 to 97 °C
c1cnc2c(c1)C1NCCC1C2 (single isomer, unassigned; (-)) [Example 2, (−)-[3aα,8bα]-1,2,3,3a,4,8b-Hexahydropyrrolo-[2′,3′:3,4]cyclopenta[1,2-b]pyridine-dihydrochloride] | > 1000 | –
CN1CCC2Cc3ncccc3C21 (single isomer, unassigned; (-)) [Example 3, (−)-[3aα,8bα]-1,2,3,3a,4,8b-Hexahydro-1-methyl-pyrrolo[2′,3′:3,4]cyclopenta[1,2-b]pyridine-dihydrochloride] | 0.199 | –
c1cc2c(cn1)[C@@H]1NCC[C@@H]1C2 [Example 5, (+)-(3aS-(3aα,8bα)]-1,2,3,3a,4,8b-Hexahydropyrrolo[3′,2′:4,5]-cyclopenta[1,2-c]-pyridinodihydrochloride] | – | Ki ([1]; [3H] cytisin 0.75 nM, rat brain membranes without cerebellum, 75 min at 4° C., mean of at least three determinations, Ki from IC50 by Cheng-Prusoff, read-out: Ki Values of the Enantiomer Pairs): 1.11 µM
c1cc2c(cn1)[C@H]1NCC[C@H]1C2 [Example 6, (−)-[3aR-(3aα,8bα)]-1,2,3,3a,4,8b-Hexahydropyrrolo[3′,2′:4,5]-cyclopenta[1,2-c]pyridinodihydrochloride] | 0.0152 | –
CN1CC[C@@H]2Cc3ccncc3[C@@H]21 [Example 7, (+)-[3aS-(3aα,8bα)]-1,2,3,3a,4,8b-Hexahydro-1-methyl-pyrrolo[3′,2′:4,5]-cyclopenta[1,2-c]pyridinodihydrochloride] | 1.67 | –
CN1CC[C@H]2Cc3ccncc3[C@H]21 [Example 8, (−)-[3aR-(3aα,8bα)]-1,2,3,3a,4,8b-Hexahydro-1-methylpyrrolo[3′,2′:4,5]cyclopenta[1,2-c]pyridinodihydrochloride] | 0.027 | –
